Experimental data reported in patent EP1066315B1 (University of Dundee, priority 1998, dated 2008).
“Also recorded” adds a separate entry of the source. Residues, ends and D or L forms follow the SMILES beside them. *: point of attachment. Fmoc = O=C(OCC1c2ccccc2-c2ccccc21)*

Key:
[1] = molecular target: T1, disrupted lysosomes isolated from the human B cell line EDR (TTCF processing activity) (Homo sapiens, UniProt Q99538); assay: Digestion of TTCF by disrupted B cell lysosomes, SDS-PAGE readout; format: biochemical; conditions: inhibitor at 0.1 mg/ml; pH 4.5; 4 hours at 37°C; Fig 1a
T1 construct: disrupted lysosomes isolated from the human B cell line EDR; endogenous in cells; host or cells: human B cell line EDR, Percoll-gradient lysosomal fraction, disrupted
T1 sequence (Q99538 26-323 limits assumed): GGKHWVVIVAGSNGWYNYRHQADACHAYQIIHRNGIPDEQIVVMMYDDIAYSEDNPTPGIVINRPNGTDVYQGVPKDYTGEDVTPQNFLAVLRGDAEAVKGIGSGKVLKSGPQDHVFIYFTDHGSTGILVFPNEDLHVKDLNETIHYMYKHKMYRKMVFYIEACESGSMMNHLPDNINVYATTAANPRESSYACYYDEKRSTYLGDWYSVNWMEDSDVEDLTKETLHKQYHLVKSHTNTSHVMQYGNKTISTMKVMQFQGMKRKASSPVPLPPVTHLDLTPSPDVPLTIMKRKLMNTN
Protocol: The invention will now be described by reference to the following Examples and Figures wherein • Figure 1: Processing of TTCF by a leupeptin-insensitive cysteine endopeptidase activity. (a) TTCF was digested in vitro in the presence of disrupted lysosomes (1-2 µg) in the presence or absence of iodoacetamide (1 mM), leupeptin, E64 or pepstatin (each at 0.1 mg/ml). Digestions were in 0.1 M NH4 acetate at pH 4.5 or Na2HPO4, pH 6.0 or 7.0. After 4 hours at 37°C, the reactions were separated by Tris-tricine SDS-PAGE and stained with Coomassie Blue. (b) Cleavage sites: TTCF digestion products were separated by SDS PAGE and electrophoretically transferred to nitrocellulose membrane. Individual fragments numbered 1-6 were subjected to 5 cycles of Edman degradation. N-terminal sequence obtained is shown in bold following upstream residues from TTCF (tetanus toxin numbering). The N-terminal sequence of His-tagged TTCF was obtained for fragments 1 and 3. (c) Residues Asn 1184 and Glu 1184 in TTCF were mutated to alanine (see Methods) and digestions performed as before. The mutation abolishes cleavage at the mutated site but not at the first site (doublet at 47 kD). In this experiment cleavage of the third site was minimal. • Figure 2: TTCF is processed by an asparaginyl endopeptidase. (a) Chromatography of the TTCF processing activity on Mono-S resin. Fractions eluted by NaCl gradient were incubated with the substrates Z-Ala-Ala-Asn-NHMec or Z-Phe-Arg-NHMec in the presence or absence of E64 (trans-epoxysuccinyl-L-leucylamido-(4-guanidino)butane). […] (b) Fractions as above were incubated with 10 µg TTCF in the presence or absence of E64 for 4 hours at 37°C prior to SDS-PAGE analysis. (c) Each fraction was analysed by SDS-PAGE and Western blotting. Electrophoretically transferred material was probed with an affinity purified antiserum raised against the peptide KGIGSGKVLKSGPQC from human legumain^1. • Figure 3: Peptide inhibitors of AEP block asparaginyl endopeptidase activity and TTCF processing in vitro and in vivo. (a) TTCF was digested with purified AEP (legumain from pig kidney) in the presence or absence of 0.2 mg/ml of the peptides indicated. […] (b) Purified AEP or a crude lysosomal protease mixture were incubated with Z-Ala-Ala-Asn-NHMec, Z-Phe-Arg-NHMec (cathepsins L&B) or Z-Val-Val-Ala NHMec (cathepsin S) in the presence of increasing concentrations of AENK or AEQK. Release of 7-amino-4-methyl coumarin was measured after 10, 20 or 30 minutes. […] At different times the cells were washed, fixed in 0.05 % glutaraldehyde and co-cultured with autologous TTCF specific T cell clones. […] Proteins obtained from commercial sources, as described in the literature or custom peptides were digested with purified pig kidney legumain at pH 5.5 in the presence of 1 mM DTT. […] When present peptide was maintained during antigen pulsing at 1 mg/ml (a) or 2 mg/ml (b). At different times the cells were washed, fixed in 0.05 % glutaraldehyde and antigen presentation measured using proliferation of different autologous TTCF-specific T cell clones. c, AEP pre-processing of TTCF speeds antigen presentation. […] Presentation was measured after 60 minutes of antigen pulsing using EBV B cells.
[…]. […] Nor could we reproduce the lysosomal TTCF digestion pattern or indeed generate any of these fragments using purified cathepsins L, S, B, D or E , all of which have been implicated in the class II MHC antigen processing pathway (reviewed in refs 5 & 6).
TTCF processing activity. Lysosomal fractions from the human B cell line EDR were prepared on 27 % Percoll density gradients as previously described^8 using ^125I-labelled transferrin (internalised for 30 minutes at 37°C) and β-hexosaminidase to identify endosomal/plasma membrane and lysosomal fractions respectively. The peak of lysosomes was collected by centrifugation at 40,000 g for 1 hour, removed from the underlying Percoll pellet, collected again at 50,000 g for 1 hour and stored frozen. […]

[2] = molecular target: T2, asparaginyl endopeptidase activity (Homo sapiens, UniProt Q99538); assay: Cleavage of Z-Ala-Ala-Asn-NHMec by Mono-S fractions of B cell lysosome extract; format: biochemical; conditions: presence or absence of E64
T2 construct: We next partially purified the TTCF processing activity from a crude B cell lysosome fraction; endogenous in cells; host or cells: human B cell line EDR; membrane pellet solubilised in citrate/CHAPS, Mono-S cation-exchange fractions
T2 sequence (Q99538 26-323 limits assumed): T1 sequence (Q99538 26-323 limits assumed)
Protocol: (§1) The invention will now be described by reference to the following Examples and Figures wherein • Figure 1: Processing of TTCF by a leupeptin-insensitive cysteine endopeptidase activity. (a) TTCF was digested in vitro in the presence of disrupted lysosomes (1-2 µg) in the presence or absence of iodoacetamide (1 mM), leupeptin, E64 or pepstatin (each at 0.1 mg/ml). Digestions were in 0.1 M NH4 acetate at pH 4.5 or Na2HPO4, pH 6.0 or 7.0. After 4 hours at 37°C, the reactions were separated by Tris-tricine SDS-PAGE and stained with Coomassie Blue. (b) Cleavage sites: TTCF digestion products were separated by SDS PAGE and electrophoretically transferred to nitrocellulose membrane. Individual fragments numbered 1-6 were subjected to 5 cycles of Edman degradation. N-terminal sequence obtained is shown in bold following upstream residues from TTCF (tetanus toxin numbering). […] (c) Each fraction was analysed by SDS-PAGE and Western blotting. […] Release of 7-amino-4-methyl coumarin was measured after 10, 20 or 30 minutes. […] At different times the cells were washed, fixed in 0.05 % glutaraldehyde and antigen presentation measured using proliferation of different autologous TTCF-specific T cell clones. c, AEP pre-processing of TTCF speeds antigen presentation. […] Presentation was measured after 60 minutes of antigen pulsing using EBV B cells. […]

cathepsin L and/or B = assay: Cleavage of Z-Phe-Arg-NHMec by Mono-S fractions of B cell lysosome extract; format: biochemical, human; conditions: presence or absence of E64, Fig 2a
Protocol: as §1

TTCF processing activity = molecular target: T3, TTCF processing activity (Homo sapiens, UniProt Q99538); assay: TTCF processing by Mono-S fractions of B cell lysosome extract; format: biochemical; conditions: 10 µg TTCF, 4 hours at 37°C, Fig 2b
T3 construct: We next partially purified the TTCF processing activity from a crude B cell lysosome fraction; endogenous in cells; host or cells: human B cell line EDR; membrane pellet solubilised in citrate/CHAPS, Mono-S cation-exchange fractions
T3 sequence (Q99538 26-323 limits assumed): T1 sequence (Q99538 26-323 limits assumed)
Protocol: as §1

[3] = system: purified AEP (legumain from pig kidney); assay: Digestion of TTCF with purified AEP in the presence of tetrapeptides; format: biochemical; conditions: 0.2 mg/ml peptide; Fig 3a
Protocol: The invention will now be described by reference to the following Examples and Figures wherein • Figure 1: Processing of TTCF by a leupeptin-insensitive cysteine endopeptidase activity. (a) TTCF was digested in vitro in the presence of disrupted lysosomes (1-2 µg) in the presence or absence of iodoacetamide (1 mM), leupeptin, E64 or pepstatin (each at 0.1 mg/ml). Digestions were in 0.1 M NH4 acetate at pH 4.5 or Na2HPO4, pH 6.0 or 7.0. After 4 hours at 37°C, the reactions were separated by Tris-tricine SDS-PAGE and stained with Coomassie Blue. (b) Cleavage sites: TTCF digestion products were separated by SDS PAGE and electrophoretically transferred to nitrocellulose membrane. Individual fragments numbered 1-6 were subjected to 5 cycles of Edman degradation. N-terminal sequence obtained is shown in bold following upstream residues from TTCF (tetanus toxin numbering). The N-terminal sequence of His-tagged TTCF was obtained for fragments 1 and 3. (c) Residues Asn 1184 and Glu 1184 in TTCF were mutated to alanine (see Methods) and digestions performed as before. The mutation abolishes cleavage at the mutated site but not at the first site (doublet at 47 kD). In this experiment cleavage of the third site was minimal. • Figure 2: TTCF is processed by an asparaginyl endopeptidase. (a) Chromatography of the TTCF processing activity on Mono-S resin. Fractions eluted by NaCl gradient were incubated with the substrates Z-Ala-Ala-Asn-NHMec or Z-Phe-Arg-NHMec in the presence or absence of E64 (trans-epoxysuccinyl-L-leucylamido-(4-guanidino)butane). […] (b) Fractions as above were incubated with 10 µg TTCF in the presence or absence of E64 for 4 hours at 37°C prior to SDS-PAGE analysis. (c) Each fraction was analysed by SDS-PAGE and Western blotting. Electrophoretically transferred material was probed with an affinity purified antiserum raised against the peptide KGIGSGKVLKSGPQC from human legumain^1. • Figure 3: Peptide inhibitors of AEP block asparaginyl endopeptidase activity and TTCF processing in vitro and in vivo. […] Release of 7-amino-4-methyl coumarin was measured after 10, 20 or 30 minutes. […] At different times the cells were washed, fixed in 0.05 % glutaraldehyde and antigen presentation measured using proliferation of different autologous TTCF-specific T cell clones. c, AEP pre-processing of TTCF speeds antigen presentation. […] Presentation was measured after 60 minutes of antigen pulsing using EBV B cells.
We decided to test the possibility that high concentrations of asparagine containing peptides might act as competitive inhibitors. […] To establish that inhibition of AEP was specific, we measured the hydrolysis of different synthetic peptide substrates in the presence and absence of these tetrapeptides.

SMILES | inhibition of lysosomal digestion of TTCF [1] | effect on cleavage of Z-Ala-Ala-Asn-NHMec [2] | inhibition of activity cleaving Z-Phe-Arg-NHMec (cathepsin L and/or B) | effect on TTCF processing activity (TTCF processing activity) | inhibition of processing of TTCF by AEP [3]
CC(C)C[C@H](NC(=O)[C@H]1O[C@@H]1C(=O)O)C(=O)NCCCCNC(=N)N [E64, trans-epoxysuccinyl-L-leucylamido-(4-guanidino)butane] | could not inhibit | no inhibitory effect; also recorded: unaffected | completely inhibited | unaffected | –
NCCCC[C@H](NC(=O)OCC1c2ccccc2-c2ccccc21)C(=O)N[C@@H](CC(N)=O)C(=O)N[C@@H](CC(N)=O)C(=O)N[C@@H](CCC(=O)O)C(N)=O [KNNE, Lys-Asn-Asn-Glu-NH] (Fmoc-KNNE-NH2) | – | – | – | – | also inhibited but was less effective
